Structures can show the parent of a compound that is named as a salt. Where two headings read alike, the source gives them in different places.
Target: T1, Human Polymorphonuclear Leukocyte Elastase (Homo sapiens, UniProt P08246)
T1 sequence (P08246 30-267): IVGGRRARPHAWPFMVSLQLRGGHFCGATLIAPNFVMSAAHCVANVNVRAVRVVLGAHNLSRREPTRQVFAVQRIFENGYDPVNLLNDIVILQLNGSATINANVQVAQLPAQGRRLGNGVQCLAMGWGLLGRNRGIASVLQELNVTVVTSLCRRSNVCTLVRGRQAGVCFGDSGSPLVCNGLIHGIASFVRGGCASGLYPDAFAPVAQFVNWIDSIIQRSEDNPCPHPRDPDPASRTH
Test: Inhibition of human polymorphonuclear leukocyte elastase via hydrolysis of Boc-AAPAN or Boc-AAPVN
Assay type: biochemical
Conditions: second order rate constant for inactivation of the enzyme, read-out: Kobs /[I]
Method: Enzyme Assays for the Inhibition of Human Polymorphonuclear Leukocyte Elastase Via Hydrolysis of N-t-Boc-alanyl-alanyl-prolylalanine-p-nitroanilide (Boc-AAPAN) or […] (Boc-AAPVN) Reagent:
0.05M TES (N-tris[hydroxymethyl]methyl-2-amino-ethanesulfonic acid) Buffer, pH 7.5.
0.2 mM Boc-AAPAN or Boc-AAPVN.
To prepare substrate, the solid was first dissolved in 10.0 ml DMSO. Buffer at pH 7.5 was then added to a final volume of 100 ml.
Crude extract of human polymorphonuclear leukocytes (PMN) containing elastase activity.
Inhibitors (azetidinones) to be tested dissolved in DMSO just before use.
To 1.0 ml of 0.2 mM Boc-AAPAN in a cuvette, 0.01-0.1 ml of DMSO with or without inhibitor was added. After mixing, a measurement was taken at 410 mμ to detect any spontaneous hydrolysis due to presence of test compound. 0.05 Milliliters of PMN extract was then added and the ΔOD/min at 410 mμ was measured and recorded. Beckman model 35 spectrophotometer was used.
Results in Tables I to III were reported as ID50, effective dosage in micrograms per milliliter (μg/ml) for 50% inhibition of the enzyme activity 2 minutes after zero time.
Results were also expressed as Ki, the micromolar concentration of the inhibitor (μM) giving 50% of the control enzyme activity; or as ^k obs/I which is the second order rate constant in per mole per second for inactivation of the enzyme.
The elastase activity in the crude PMN extract may vary from one preparation to another. A control of each new batch is run, and the volume added in the assay procedure is adjusted according to activity.

Compound	kinact/KI (pH 7.5, Table I)	kinact/KI (pH 7.5, Table II)
CCC[C@@H](NC(=O)N1C(=O)C(CC)(CC)[C@@H]1Oc1ccc(CNC(=O)Cc2ccncc2)cc1)c1ccc(C)cc1 [R4=H; R5=COCH2-4-pyridyl; R6=H, (4S)-3,3-Diethyl-1-[(R)-α-(n-propyl)-4-(methyl)benzylaminocarbonyl]-4-[(4-((4-pyridyl)methylcarbonyl)aminomethyl)phenoxy]azetidin-2-one]	1.7e+06 M⁻¹ s⁻¹	–
CCC[C@@H](NC(=O)N1C(=O)C(CC)(CC)[C@@H]1Oc1ccc(CNC(=O)NCc2ccccc2)cc1)c1ccc(C)cc1 [R4=H; R5=CONH Bn; R6=H, (4S)-3,3-Diethyl-1-[(R)-α-(n-propyl)-4-(methyl)benzylaminocarbonyl]-4-[(4-((N-benzyl)aminocarbonyl)aminomethyl)phenoxy]azetidin-2-one]	1.6e+06 M⁻¹ s⁻¹	–
CCC[C@@H](NC(=O)N1C(=O)C(CC)(CC)[C@@H]1Oc1ccc(CNC(=O)NC(C)C)cc1)c1ccc(C)cc1 [R4=H; R5=CONH isoPr; R6=H, (4S)-3,3-Diethyl-1-[(R)-α-(n-propyl)-4-(methyl)benzylaminocarbonyl]-4-[(4-((N-isopropyl)aminocarbonyl)aminomethyl)phenoxy]azetidin-2-one]	1.1e+06 M⁻¹ s⁻¹	–
CCC[C@@H](NC(=O)N1C(=O)C(CC)(CC)[C@@H]1Oc1ccc(CNC(=O)NC)cc1)c1ccc(C)cc1 [R4=H; R5=CONHMe; R6=H, (4S)-3,3-Diethyl-1-[(R)-α-(n-propyl)-4-(methyl)benzylaminocarbonyl]-4-[(4-((N-methyl)aminocarbonyl)aminomethyl)phenoxy]azetidin-2-one]	1.1e+06 M⁻¹ s⁻¹	–
CCCNC(=O)NCc1ccc(O[C@@H]2N(C(=O)N[C@H](CCC)c3ccc(C)cc3)C(=O)C2(CC)CC)cc1 [R4=H; R5=CONHnPr; R6=H, (4S)-3,3-Diethyl-1-[(R)-α-(n-propyl)-4-(methyl)benzylaminocarbonyl]-4-[(4-((N-propyl)aminocarbonyl)aminomethyl)phenoxy]azetidin-2-one]	1.2e+06 M⁻¹ s⁻¹	–
CCC[C@@H](NC(=O)N1C(=O)C(CC)(CC)[C@@H]1Oc1ccc(CN)cc1)c1ccc(C)cc1 [R4=H; R5=H; R6=H, (4S)-3,3-Diethyl-1-[(R)-α-(n-propyl)-4-(methyl)benzylaminocarbonyl]-4-[(4-aminomethyl)phenoxy]azetidin-2-one]	325000 M⁻¹ s⁻¹	–
CCC[C@@H](NC(=O)N1C(=O)C(CC)(CC)[C@@H]1Oc1ccc(CN(C)Cc2ccccc2)cc1)c1ccc(C)cc1 [R4=Me; R5=Bn; R6=H]	400000 M⁻¹ s⁻¹	–
CCC[C@@H](NC(=O)N1C(=O)C(CC)(CC)[C@@H]1Oc1ccc(CCN(C)Cc2ccccc2)cc1)c1ccc(C)cc1 [R4=Me; R5=Bn; n=2, (4S)-3,3-Diethyl-1-[(R)-α-n-propyl-(4-methyl)benzylaminocarbonyl]-4-[(4-(2-benzylmethylamino)ethyl)phenoxy]azetidin-2-one]	–	1.32e+06 M⁻¹ s⁻¹
CCC[C@@H](NC(=O)N1C(=O)C(CC)(CC)[C@@H]1Oc1ccc(CCCCN(C)Cc2ccccc2)cc1)c1ccc(C)cc1 [R4=Me; R5=Bn; n=4]	–	640000 M⁻¹ s⁻¹
CCC[C@@H](NC(=O)N1C(=O)C(CC)(CC)[C@@H]1Oc1ccc(CN(C)CCCOC(=O)N(C)C)cc1)c1ccc(C)cc1 [R4=Me; R5=CH2 CH2 CH2 OCONMe2; R6=H]	2.1e+06 M⁻¹ s⁻¹	–
CCC[C@@H](NC(=O)N1C(=O)C(CC)(CC)[C@@H]1Oc1ccc(CN(C)CCCOC)cc1)c1ccc(C)cc1 [R4=Me; R5=CH2 CH2 CH2 OMe; R6=H]	1.5e+06 M⁻¹ s⁻¹	–
CCC[C@@H](NC(=O)N1C(=O)C(CC)(CC)[C@@H]1Oc1ccc(CN(C)CCC(=O)O)cc1)c1ccc(C)cc1 [R4=Me; R5=CH2 CH2 CO2 H--TFA; R6=H]	440000 M⁻¹ s⁻¹	–
CCC[C@@H](NC(=O)N1C(=O)C(CC)(CC)[C@@H]1Oc1ccc(CN(C)CCC(=O)N(C)C)cc1)c1ccc(C)cc1 [R4=Me; R5=CH2 CH2 CONMe2; R6=H]	870000 M⁻¹ s⁻¹	–
CCC[C@@H](NC(=O)N1C(=O)C(CC)(CC)[C@@H]1Oc1ccc(CN(C)CCN(C)C(C)=O)cc1)c1ccc(C)cc1 [R4=Me; R5=CH2 CH2 N(Me)Ac; R6=H]	650000 M⁻¹ s⁻¹	–
CCC[C@@H](NC(=O)N1C(=O)C(CC)(CC)[C@@H]1Oc1ccc(CN(C)CCN(C)Cc2ccccc2)cc1)c1ccc(C)cc1 [R4=Me; R5=CH2 CH2 N(Me)Bn; R6=H]	1.25e+06 M⁻¹ s⁻¹	–

Next, values leading:

kinact/KI (pH 7.5, Table I)	kinact/KI (pH 7.5, Table II)	Compound
850000 M⁻¹ s⁻¹	–	CCC[C@@H](NC(=O)N1C(=O)C(CC)(CC)[C@@H]1Oc1ccc(CN(C)CCN(C)C(=O)N(C)C)cc1)c1ccc(C)cc1 [R4=Me; R5=CH2 CH2 N(Me)CONMe2; R6=H]
1.1e+06 M⁻¹ s⁻¹	–	CCC[C@@H](NC(=O)N1C(=O)C(CC)(CC)[C@@H]1Oc1ccc(CN(C)CCN(C)C(=O)OC)cc1)c1ccc(C)cc1 [R4=Me; R5=CH2 CH2 N(Me)COOMe; R6=H]
850000 M⁻¹ s⁻¹	–	CCC[C@@H](NC(=O)N1C(=O)C(CC)(CC)[C@@H]1Oc1ccc(CN(C)CCN(C)C)cc1)c1ccc(C)cc1 [R4=Me; R5=CH2 CH2 NMe2; R6=H]
–	1.2e+06 M⁻¹ s⁻¹	CCC[C@@H](NC(=O)N1C(=O)C(CC)(CC)[C@@H]1Oc1ccc(CCN(C)CCN(C)C)cc1)c1ccc(C)cc1 [R4=Me; R5=CH2 CH2 NMe2; n=2, (4S)-3,3-Diethyl-1-[(R)-α-n-propyl-(4-methyl)benzylaminocarbonyl]-4-[(4-(2-((2-dimethylamino)ethyl)methylamino)ethyl)phenoxy]azetidin-2-one]
1.9e+06 M⁻¹ s⁻¹	–	CCC[C@@H](NC(=O)N1C(=O)C(CC)(CC)[C@@H]1Oc1ccc(CN(C)CCOCCOC)cc1)c1ccc(C)cc1 [R4=Me; R5=CH2 CH2 OCH2 CH2 OMe; R6=H]
825000 M⁻¹ s⁻¹	–	CCC[C@@H](NC(=O)N1C(=O)C(CC)(CC)[C@@H]1Oc1ccc(C(C)N(C)CCOCCOC)cc1)c1ccc(C)cc1 (stereo partly drawn) [R4=Me; R5=CH2 CH2 OCH2 CH2 OMe; R6=Me]
630000 M⁻¹ s⁻¹	–	CCC[C@@H](NC(=O)N1C(=O)C(CC)(CC)[C@@H]1Oc1ccc(CN(C)CCOC(=O)C(C)C)cc1)c1ccc(C)cc1 [R4=Me; R5=CH2 CH2 OCOCHMe2; R6=H]
230000 M⁻¹ s⁻¹	–	CCC[C@@H](NC(=O)N1C(=O)C(CC)(CC)[C@@H]1Oc1ccc(CN(C)CCOC(=O)C(C)(C)C)cc1)c1ccc(C)cc1 [R4=Me; R5=CH2 CH2 OCOCMe3; R6=H]
1.3e+06 M⁻¹ s⁻¹	–	CCCCN(C)C(=O)OCCN(C)Cc1ccc(O[C@@H]2N(C(=O)N[C@H](CCC)c3ccc(C)cc3)C(=O)C2(CC)CC)cc1 [R4=Me; R5=CH2 CH2 OCON(Me)n-Bu; R6=H]
1.23e+06 M⁻¹ s⁻¹	–	CCC[C@@H](NC(=O)N1C(=O)C(CC)(CC)[C@@H]1Oc1ccc(CN(C)CCOC(=O)N(CC)CC)cc1)c1ccc(C)cc1 [R4=Me; R5=CH2 CH2 OCONEt2; R6=H]
1.85e+06 M⁻¹ s⁻¹	–	CCC[C@@H](NC(=O)N1C(=O)C(CC)(CC)[C@@H]1Oc1ccc(CN(C)CCOC(=O)NC(C)C)cc1)c1ccc(C)cc1 [R4=Me; R5=CH2 CH2 OCONH(i-Pr); R6=H]
700000 M⁻¹ s⁻¹	–	CCC[C@@H](NC(=O)N1C(=O)C(CC)(CC)[C@@H]1Oc1ccc(CN(C)CCOC(=O)NC)cc1)c1ccc(C)cc1 [R4=Me; R5=CH2 CH2 OCONHMe; R6=H]
610000 M⁻¹ s⁻¹	–	CCC[C@@H](NC(=O)N1C(=O)C(CC)(CC)[C@@H]1Oc1ccc(CN(C)CCOC(=O)N(C)C)cc1)c1ccc(C)cc1 [R4=Me; R5=CH2 CH2 OCONMe2; R6=H, (4S)-3,3-Diethyl-1-[(R)-α-n-propyl-(4-methyl)benzylaminocarbonyl]-4-[(4-((2-dimethylaminocarbonyloxy)ethyl)methylaminomethyl)phenoxy]azetidin-2-one]
925000 M⁻¹ s⁻¹	–	CCC[C@@H](NC(=O)N1C(=O)C(CC)(CC)[C@@H]1Oc1ccc(C(C)N(C)CCOC(=O)N(C)C)cc1)c1ccc(C)cc1 (stereo partly drawn) [R4=Me; R5=CH2 CH2 OCONMe2; R6=Me]
600000 M⁻¹ s⁻¹	–	CCC[C@@H](NC(=O)N1C(=O)C(CC)(CC)[C@@H]1Oc1ccc(CN(C)CCOCC)cc1)c1ccc(C)cc1 [R4=Me; R5=CH2 CH2 OEt; R6=H, (4S)-3,3-Diethyl-1-[(R)-α-n-propyl-(4-methyl)benzylaminocarbonyl]-4-[(4-(2-ethoxyethyl)methylaminomethyl)phenoxy]azetidin-2-one]
560000 M⁻¹ s⁻¹	–	CCC[C@@H](NC(=O)N1C(=O)C(CC)(CC)[C@@H]1Oc1ccc(CN(C)CCO)cc1)c1ccc(C)cc1 [R4=Me; R5=CH2 CH2 OH; R6=H]
770000 M⁻¹ s⁻¹	–	CCC[C@@H](NC(=O)N1C(=O)C(CC)(CC)[C@@H]1Oc1ccc(C(C)N(C)CCO)cc1)c1ccc(C)cc1 (stereo partly drawn) [R4=Me; R5=CH2 CH2 OH; R6=Me]
525000 M⁻¹ s⁻¹	–	CCC[C@@H](NC(=O)N1C(=O)C(CC)(CC)[C@@H]1Oc1ccc([C@@H](C)N(C)CCOC)cc1)c1ccc(C)cc1 [R4=Me; R5=CH2 CH2 OMe; R6=(R)--Me, (4S)-3,3-diethyl-4-{(R)-4-[1-((2-methoxyethyl)methylamino)ethyl]phenoxy}-1-[(R)-α-n-propyl-(4-methyl)benzylaminocarbonyl]azetidin-2-one]

Reference: US5952321A, “Substituted azetidinones as anti-inflammatory and antidegenerative agents” (Merck & Co., Inc., priority 1996, dated 1999)
